PubChem BioAssay (NCI)
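Protocol summary: plate cells (96-well), add compound at 5 concentrations, incubate 48 h, interpolate endpoints linearly. GI50 marks 50% less growth. TGI is the concentration that stops growth completely.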

Legend:
Test in all cases: NCI-60 cell line screen, 48 h
[1] = tested on: OVCAR-4 ovarian
[2] = tested on: MOLT-4 leukemia
[3] = tested on: NCI-H23 lung
[4] = tested on: TK-10 renal
[5] = tested on: DU-145 prostate
[6] = tested on: SN12C renal
[7] = tested on: ACHN renal
[8] = tested on: HT29 colon
[9] = tested on: SK-MEL-28 melanoma
[10] = tested on: MDA-MB-435
[11] = tested on: PC-3 prostate
[12] = tested on: COLO 205 colon
[13] = tested on: A549 NSCLC
[14] = tested on: T-47D breast
[15] = tested on: RPMI-8226 leukemia
[16] = tested on: EKVX NSCLC
[17] = tested on: HCT-15 colon
[18] = tested on: 786-0 renal
[19] = tested on: MDA-MB-468 breast
[20] = tested on: SF-268 CNS
[21] = tested on: UACC-257 melanoma
[22] = tested on: NCI-H522 lung
[23] = tested on: K-562 leukemia
[24] = tested on: CCRF-CEM leukemia
[25] = tested on: OVCAR-8 ovarian
[26] = tested on: SF-539 CNS
[27] = tested on: KM12 colon
[28] = tested on: MCF7 breast
[29] = tested on: U251 CNS
[30] = tested on: OVCAR-5 ovarian
[31] = tested on: HCC-2998 colon
[32] = tested on: SF-295 CNS
[33] = tested on: SK-MEL-2 melanoma
[34] = tested on: MALME-3M melanoma
[35] = tested on: UO-31 renal
[36] = tested on: LOX IMVI melanoma
[37] = tested on: HS 578T breast
[38] = tested on: HOP-92 NSCLC
[39] = tested on: HL-60(TB) leukemia
[40] = tested on: CAKI-1 renal
[41] = tested on: NCI-H460 lung
[42] = tested on: HOP-62 NSCLC
[43] = tested on: OVCAR-3 ovarian
[44] = tested on: A498 renal
[45] = tested on: SR leukemia
[46] = tested on: NCI-H226 lung
[47] = tested on: SW-620 colon
[48] = tested on: BT-549 breast
[49] = tested on: IGROV1 ovarian
[50] = tested on: SK-OV-3 ovarian
[51] = tested on: M14 melanoma
[52] = tested on: SNB-75 CNS
[53] = tested on: RXF 393 renal
[54] = tested on: UACC-62 melanoma
[55] = tested on: SNB-19 CNS
[56] = tested on: SK-MEL-5 melanoma
[57] = tested on: HCT-116 colon
[58] = tested on: MDA-MB-231 breast
[59] = tested on: NCI/ADR-RES ovarian

Work on `COc1cc2c(cc1OC)CN(CCCCOc1cc(O)c3c(=O)cc(-c4ccccc4)oc3c1)CC2` yielded a GI50 [1] of 4.01 µM, a TGI [1] of 91.5 µM and a GI50 [2] of 3.09 µM. For the same compound, the TGI [2] was 19.6 µM, the GI50 [3] was 24.5 µM and the TGI [3] was greater than 100 µM. The GI50 [4] was 57.4 µM, the TGI [4] was greater than 100 µM and the GI50 [5] was 32.1 µM. It also gave a TGI [5] greater than 100 µM, a GI50 [6] of 6.25 µM and a TGI [6] greater than 100 µM. It also gave a GI50 [7] of 8.74 µM, a TGI [7] greater than 100 µM and a GI50 [8] of 3.34 µM. The TGI [8] was 12.4 µM, the GI50 [9] was 5.32 µM and the TGI [9] was 19.6 µM. For the same compound, the GI50 [10] was 13.2 µM, the TGI [10] was 41.9 µM and the GI50 [11] was 6.44 µM. The TGI [11] was greater than 100 µM, the GI50 [12] was 3.27 µM and the TGI [12] was 12.6 µM. It also gave a GI50 [13] of 16.1 µM, a TGI [13] greater than 100 µM and a GI50 [14] of 9.01 µM. It also gave a TGI [14] of 65.9 µM, a GI50 [15] of 4.29 µM and a TGI [15] of 24.3 µM. For the same compound, the GI50 [16] was 71 µM, the TGI [16] was greater than 100 µM and the GI50 [17] was 6.7 µM. For the same compound, the TGI [17] was 31.8 µM, the GI50 [18] was 3.53 µM and the TGI [18] was 14.4 µM. For the same compound, the GI50 [19] was 2.07 µM, the TGI [19] was 14 µM and the GI50 [20] was 10.6 µM. The TGI [20] was greater than 100 µM, the GI50 [21] was 5.28 µM and the TGI [21] was 18.6 µM. It also gave a GI50 [22] of 12.5 µM, a TGI [22] of 29.4 µM and a GI50 [23] of 2.48 µM. It also gave a TGI [23] of 10.8 µM, a GI50 [24] of 5.17 µM and a TGI [24] greater than 100 µM. For the same compound, the GI50 [25] was 18.9 µM, the TGI [25] was greater than 100 µM and the GI50 [26] was 10.4 µM. The TGI [26] was 23.8 µM, the GI50 [27] was 10.3 µM and the TGI [27] was 36.9 µM. It also gave a GI50 [28] of 6.06 µM, a TGI [28] of 35.4 µM and a GI50 [29] of 11.9 µM. It also gave a TGI [29] of 56.6 µM, a GI50 [30] of 40.7 µM and a TGI [30] greater than 100 µM. The GI50 [31] was 7.91 µM, the TGI [31] was 22.1 µM and the GI50 [32] was 10.7 µM. It also gave a TGI [32] of 25 µM, a GI50 [33] of 14 µM and a TGI [33] of 40.1 µM. The GI50 [34] was 2.95 µM, the TGI [34] was 8.16 µM and the GI50 [35] was 10.3 µM. The TGI [35] was 26.4 µM, the GI50 [36] was 4.51 µM and the TGI [36] was 15.3 µM. It also gave a GI50 [37] of 11.6 µM, a TGI [37] of 52 µM and a GI50 [38] of 8.92 µM. For the same compound, the TGI [38] was greater than 100 µM, the GI50 [39] was 2.32 µM and the TGI [39] was 13.8 µM. The GI50 [40] was 13.1 µM, the TGI [40] was 97.5 µM and the GI50 [41] was 7.07 µM. For the same compound, the TGI [41] was 41.5 µM, the GI50 [42] was 22.2 µM and the TGI [42] was greater than 100 µM. The GI50 [43] was 13.1 µM, the TGI [43] was 50.3 µM and the GI50 [44] was 25.8 µM. It also gave a TGI [44] of 63.6 µM, a GI50 [45] of 1.85 µM and a TGI [45] of 4.67 µM. The GI50 [46] was 10.2 µM, the TGI [46] was greater than 100 µM and the GI50 [47] was 11.3 µM. The TGI [47] was 35.4 µM, the GI50 [48] was 8.53 µM and the TGI [48] was 22.9 µM. For the same compound, the GI50 [49] was 26.4 µM, the TGI [49] was greater than 100 µM and the GI50 [50] was 15.7 µM. For the same compound, the TGI [50] was 50.8 µM, the GI50 [51] was 2.96 µM and the TGI [51] was 11.3 µM. The GI50 [52] was 4 µM, the TGI [52] was 45.4 µM and the GI50 [53] was 1.69 µM. For the same compound, the TGI [53] was 10.9 µM, the GI50 [54] was 2.67 µM and the TGI [54] was 7.92 µM. It also gave a GI50 [55] of 28.5 µM, a TGI [55] greater than 100 µM and a GI50 [56] of 11 µM. The TGI [56] was 23.5 µM, the GI50 [57] was 3.42 µM and the TGI [57] was 13.4 µM. For the same compound, the GI50 [58] was 10.6 µM and the TGI [58] was 44.8 µM.
`O=C1c2c(c3c4cc(F)ccc4oc3c3[nH]c4ccc(Br)cc4c23)C(=O)N1O` gave a GI50 [1] greater than 100 µM, a TGI [1] greater than 100 µM and a GI50 [2] of 0.505 µM. It also gave a TGI [2] greater than 100 µM, a GI50 [3] of 0.471 µM and a TGI [3] of 11.7 µM. It also gave a GI50 [4] of 24.9 µM, a TGI [4] of 72.5 µM and a GI50 [5] of 0.735 µM. For the same compound, the TGI [5] was greater than 100 µM, the GI50 [6] was 0.473 µM and the TGI [6] was greater than 100 µM. For the same compound, the GI50 [7] was 0.372 µM, the TGI [7] was 13.3 µM and the GI50 [8] was 6.86 µM. The TGI [8] was greater than 100 µM, the GI50 [9] was 5.84 µM and the TGI [9] was greater than 100 µM. It also gave a GI50 [10] of 4.91 µM, a TGI [10] greater than 100 µM and a GI50 [11] of 0.926 µM. The TGI [11] was greater than 100 µM, the GI50 [12] was greater than 33 µM and the TGI [12] was greater than 100 µM. The GI50 [13] was greater than 52.1 µM, the TGI [13] was greater than 100 µM and the GI50 [14] was 3.22 µM. The TGI [14] was greater than 100 µM, the GI50 [15] was 1.86 µM and the TGI [15] was greater than 100 µM. The GI50 [16] was 25.8 µM, the TGI [16] was greater than 100 µM and the GI50 [17] was 3.57 µM. For the same compound, the TGI [17] was greater than 100 µM, the GI50 [18] was 3.84 µM and the TGI [18] was greater than 50.6 µM. It also gave a GI50 [19] of 3.45 µM, a TGI [19] of 23 µM and a GI50 [20] of 0.844 µM. For the same compound, the TGI [20] was greater than 100 µM, the GI50 [21] was greater than 100 µM and the TGI [21] was greater than 100 µM. For the same compound, the GI50 [22] was 0.286 µM, the TGI [22] was 5.82 µM and the TGI [23] was greater than 100 µM. It also gave a GI50 [24] of 0.193 µM, a TGI [24] greater than 100 µM and a GI50 [25] of 1.47 µM. It also gave a TGI [25] greater than 100 µM, a GI50 [26] of 0.381 µM and a TGI [26] of 4.34 µM. The GI50 [27] was 5.89 µM, the TGI [27] was greater than 100 µM and the GI50 [28] was 0.488 µM. For the same compound, the TGI [28] was greater than 100 µM, the GI50 [29] was 0.641 µM and the TGI [29] was greater than 100 µM. The GI50 [30] was greater than 100 µM, the TGI [30] was greater than 100 µM and the GI50 [31] was 11.5 µM. It also gave a TGI [31] greater than 100 µM, a GI50 [32] of 1.24 µM and a TGI [32] greater than 46.4 µM. The GI50 [59] was 0.578 µM, the TGI [59] was greater than 100 µM and the GI50 [33] was 18.6 µM. It also gave a TGI [33] of 45.4 µM, a GI50 [34] of 2.5 µM and a TGI [34] of 16.1 µM. The GI50 [35] was 0.439 µM, the TGI [35] was greater than 100 µM and the GI50 [36] was 0.227 µM. The TGI [36] was 1.4 µM, the GI50 [37] was 2.42 µM and the TGI [37] was greater than 34.9 µM. The GI50 [38] was 2.35 µM, the TGI [38] was 13.2 µM and the GI50 [39] was 6.07 µM. The TGI [39] was greater than 100 µM, the GI50 [40] was 1.34 µM and the TGI [40] was greater than 100 µM. It also gave a GI50 [41] of 0.393 µM, a TGI [41] greater than 100 µM and a GI50 [42] of 0.833 µM. For the same compound, the TGI [42] was greater than 57.8 µM, the GI50 [43] was 45 µM and the TGI [43] was greater than 100 µM. It also gave a GI50 [44] of 26.6 µM, a TGI [44] of 70.9 µM and a GI50 [45] of 0.131 µM. The TGI [45] was greater than 100 µM, the GI50 [46] was 8.35 µM and the TGI [46] was greater than 100 µM. For the same compound, the GI50 [47] was 0.477 µM, the TGI [47] was greater than 100 µM and the GI50 [48] was 1.84 µM. The TGI [48] was greater than 100 µM, the GI50 [49] was 1.05 µM and the TGI [49] was greater than 100 µM. It also gave a GI50 [50] of 3.72 µM, a TGI [50] of 37.6 µM and a GI50 [51] of 0.542 µM. It also gave a TGI [51] greater than 100 µM, a GI50 [52] of 0.656 µM and a TGI [52] of 8.39 µM. The GI50 [53] was 3.76 µM, the TGI [53] was 32.8 µM and the GI50 [54] was 0.799 µM. It also gave a TGI [54] of 14.6 µM, a GI50 [55] of 0.678 µM and a TGI [55] greater than 79.9 µM. The GI50 [56] was 1.42 µM, the TGI [56] was 15 µM and the GI50 [57] was 2.09 µM. For the same compound, the TGI [57] was greater than 100 µM, the GI50 [58] was 4.99 µM and the TGI [58] was 64.3 µM.
